# Reference: patent US8497256B2, “Formulations and uses of 2-hydroxy-5-phenylazobenzoic acid derivatives for the treatment of males” (Salix Pharmaceuticals, Ltd, priority 2010, dated 2013)
# Counter-ions that a name gives are not always drawn. Like-named read-outs stand apart in the source and are kept apart here. Marks after values point to notes of the source that are not given here.
# Experiments:
# [1] = Ames test; format: cell-based; conditions: in vitro
# Excerpt: (§1) For a 50 kg person of average height this dose represents 2.5 times the recommended human dose on a body surface area basis. Balsalazide disodium was not genotoxic in the following in vitro or in vivo tests: Ames test, human lymphocyte chromosomal aberration test, and mouse lymphoma cell (L5178Y/TK+/−) forward mutation test, or mouse micronucleus test. However, it was genotoxic in the in vitro Chinese hamster lung cell (CH V79/HGPRT) forward mutation test.
# (§2) The compound 4-aminobenzoyl-β-alanine, a metabolite of balsalazide disodium, was not genotoxic in the Ames test and the mouse lymphoma cell (L5178Y/TK+/−) forward mutation test but was positive in the human lymphocyte chromosomal aberration test. N-acetyl-4-aminobenzoyl-β-alanine, a conjugated metabolite of balsalazide disodium, was not genotoxic in Ames test, the mouse lymphoma cell (L5178Y/TK+/−) forward mutation test, or the human lymphocyte chromosomal aberration test.
# [2] = system: CYP3A4/5; conditions: microsomes
# [3] = system: human lymphocyte; assay: Human lymphocyte chromosomal aberration test; format: cell-based; conditions: in vitro
# Excerpt: as §1, §2
# [4] = system: mouse lymphoma cell (L5178Y/TK+/−); assay: Mouse lymphoma cell forward mutation test; format: cell-based; conditions: in vitro
# Excerpt: as §1, §2
# [5] = biological target: T1, CYP1A2 (Homo sapiens, UniProt P05177); conditions: microsomes
# T1 sequence (P05177 1-516): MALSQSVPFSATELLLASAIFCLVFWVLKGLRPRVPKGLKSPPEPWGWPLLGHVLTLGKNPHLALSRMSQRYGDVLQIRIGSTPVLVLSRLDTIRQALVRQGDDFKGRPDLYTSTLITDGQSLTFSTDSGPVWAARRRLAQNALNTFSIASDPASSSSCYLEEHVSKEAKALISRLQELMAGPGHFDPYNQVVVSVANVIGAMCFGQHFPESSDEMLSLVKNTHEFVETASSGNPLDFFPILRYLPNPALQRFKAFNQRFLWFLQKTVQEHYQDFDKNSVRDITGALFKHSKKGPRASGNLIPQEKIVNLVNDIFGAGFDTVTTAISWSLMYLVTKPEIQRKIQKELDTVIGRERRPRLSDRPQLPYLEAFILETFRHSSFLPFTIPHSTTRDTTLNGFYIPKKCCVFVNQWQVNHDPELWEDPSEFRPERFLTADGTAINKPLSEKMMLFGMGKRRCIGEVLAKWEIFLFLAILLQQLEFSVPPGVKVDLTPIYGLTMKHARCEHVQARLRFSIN
# [6] = biological target: T2, CYP2C9 (Homo sapiens, UniProt P11712); conditions: microsomes
# T2 sequence (P11712 whole entry): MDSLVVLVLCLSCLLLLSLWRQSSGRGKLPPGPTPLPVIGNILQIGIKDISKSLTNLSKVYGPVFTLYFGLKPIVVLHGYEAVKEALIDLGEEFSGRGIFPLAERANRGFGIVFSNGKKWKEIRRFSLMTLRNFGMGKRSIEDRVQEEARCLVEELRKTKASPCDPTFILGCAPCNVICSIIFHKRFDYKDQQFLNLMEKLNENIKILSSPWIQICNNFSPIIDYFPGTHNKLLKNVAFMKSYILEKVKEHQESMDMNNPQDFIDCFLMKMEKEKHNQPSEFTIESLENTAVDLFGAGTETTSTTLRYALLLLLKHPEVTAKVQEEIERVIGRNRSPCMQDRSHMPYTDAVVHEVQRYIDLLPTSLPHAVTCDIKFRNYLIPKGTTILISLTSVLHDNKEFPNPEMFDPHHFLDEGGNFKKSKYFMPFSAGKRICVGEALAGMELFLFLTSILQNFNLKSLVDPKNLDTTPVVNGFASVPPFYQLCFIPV
# [7] = biological target: T3, CYP2D6 (Homo sapiens, UniProt P10635); conditions: microsomes
# T3 sequence (P10635 whole entry): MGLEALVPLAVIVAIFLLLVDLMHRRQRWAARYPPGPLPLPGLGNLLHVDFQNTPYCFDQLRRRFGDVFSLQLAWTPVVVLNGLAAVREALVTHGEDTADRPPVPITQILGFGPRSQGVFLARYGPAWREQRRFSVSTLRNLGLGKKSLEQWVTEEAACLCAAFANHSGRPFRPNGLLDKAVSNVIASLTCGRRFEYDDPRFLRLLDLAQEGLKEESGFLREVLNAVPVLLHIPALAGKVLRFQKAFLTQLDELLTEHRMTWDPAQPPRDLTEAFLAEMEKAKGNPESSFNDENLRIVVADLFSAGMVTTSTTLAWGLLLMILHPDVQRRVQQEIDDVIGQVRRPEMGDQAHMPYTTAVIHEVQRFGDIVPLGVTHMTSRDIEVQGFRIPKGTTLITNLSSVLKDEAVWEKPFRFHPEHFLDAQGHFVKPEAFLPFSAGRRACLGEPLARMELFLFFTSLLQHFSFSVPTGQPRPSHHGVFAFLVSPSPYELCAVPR
# [8] = biological target: T4, CYP2C19 (Homo sapiens, UniProt P33261); conditions: microsomes
# T4 sequence (P33261 whole entry): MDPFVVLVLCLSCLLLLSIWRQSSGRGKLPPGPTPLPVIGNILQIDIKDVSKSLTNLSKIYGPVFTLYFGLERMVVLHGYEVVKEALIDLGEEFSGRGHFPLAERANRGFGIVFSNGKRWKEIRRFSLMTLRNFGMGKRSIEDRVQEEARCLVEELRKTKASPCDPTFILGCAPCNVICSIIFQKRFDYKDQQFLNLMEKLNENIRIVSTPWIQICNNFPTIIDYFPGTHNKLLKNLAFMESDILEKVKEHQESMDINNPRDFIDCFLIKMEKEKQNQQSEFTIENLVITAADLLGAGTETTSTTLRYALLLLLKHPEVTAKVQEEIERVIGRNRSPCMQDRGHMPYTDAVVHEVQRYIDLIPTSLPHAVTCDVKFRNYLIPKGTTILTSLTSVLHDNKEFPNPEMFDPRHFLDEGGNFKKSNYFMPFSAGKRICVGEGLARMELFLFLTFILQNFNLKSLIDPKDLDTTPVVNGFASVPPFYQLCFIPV
# [9] = cited from earlier work
# [10] = Food effect on pharmacokinetics, single 3.3 g dose of GIAZO; conditions: single dose 3.3 g GIAZO; for Change (reduction) of AUC0-∞ under fed conditions / Reduction of mean Cmax under fed conditions: high-fat meal vs fasted; for Tmax: human, plasma, po, 3.3 g, Median Tmax
# [11] = clinical
# Excerpt: Before further description and in order that the invention may be more readily understood, certain terms are first defined and collected here for convenience. Common pharmacologic term used herein refer are as follows: Tmax (time to maximum concentration); Cmax (observed maximum concentration); kel (slope of terminal linear portion of concentration/time curve); T1/2 (half-life of balsalazide calculated as: 0.693/Kel); AUC(last) (area under the curve to last quantifiable concentration as measured by the trapezoidal rule); and AUC(inf) (the AUC value extrapolated to infinity calculated as: AUC(inf)=AUC(last)+C(t)last/Kel where C(t) last is the last measurable concentration).
# [12] = system: human plasma proteins; assay: Plasma protein binding
# [13] = clinical; conditions: human, in vivo, po, 3.3 g, Median Tmax
# [14] = system: human plasma proteins
# [15] = human, in vivo, po, 3.3 g
# [16] = Reproduction / fertility studies in rats; format: in vivo, rat; conditions: oral doses up to 2 g/kg/day
# Excerpt: (§3) There are, however, no adequate and well-controlled studies in pregnant women. Because animal reproduction studies are not always predictive of human response, this drug should be used during pregnancy only if clearly needed.
# as §2
# [17] = Reproduction studies in rabbits; format: in vivo, rabbit; conditions: oral doses up to 2 g/kg/day
# Excerpt: as §3
# [18] = 24-month rat carcinogenicity study; format: in vivo, rat (Sprague Dawley); conditions: 24 months, oral (dietary), doses up to 2 g/kg/day
# Excerpt: as §1
# [19] = system: Chinese hamster lung cell (CH V79/HGPRT); format: cell-based
# Excerpt: as §1
# [20] = Mouse micronucleus test; conditions: in vivo
# Excerpt: as §1
# [21] = Solubility of balsalazide disodium; format: physicochemical
# Excerpt: It is a stable, odorless, orange to yellow, microcrystalline powder. […] Balsalazide disodium has the chemical name (E)-5-[[-4-[[(2-carboxyethyl) amino]carbonyl]phenyl]azo]-2-hydroxybenzoic acid, disodium salt, dihydrate (Molecular Weight: 437.32; Molecular Formula: C17H13N3O6Na2.2H2O).
# Each GIAZO tablet contains 1.1 g of balsalazide disodium, film-coated for oral delivery. Balsalazide disodium is insoluble in acid, but soluble at a pH of at least 4.5. […] The sodium content of each tablet is approximately 126 mg.
# Mesalamine is 5-aminosaliacylic acid and appears to act topically.
# [22] = biological target: T3, CYP2D6; assay: CYP inhibition in human liver microsomes
# [23] = biological target: T4, CYP2C19; assay: CYP inhibition in human liver microsomes
# [24] = system: CYP3A4/5; assay: CYP inhibition in human liver microsomes
# [25] = biological target: T2, CYP2C9; assay: CYP inhibition in human liver microsomes
# [26] = biological target: T1, CYP1A2; assay: CYP inhibition in human liver microsomes
# [27] = human, in vivo, Terminal half-life
# [28] = repeated dose (Q12) 3.3 g as GIAZO, N = 18
# [29] = single dose 3.3 g as GIAZO, N = 18
structure (smiles),measurement,setting,value
"Nc1ccc(C(=O)NCCC(=O)O)cc1 [4-ABA, 4-aminobenzoyl-β-alanine]","Genotoxicity, Ames test",[1],not genotoxic
same,Inhibition of CYP3A4/5,[2],not shown to inhibit
same,"Genotoxicity, human lymphocyte chromosomal aberration test",[3],positive
same,"Genotoxicity, mouse lymphoma cell (L5178Y/TK+/−) forward mutation test",[4],not genotoxic
same,Inhibition of CYP1A2,[5],not shown to inhibit
same,Inhibition of CYP2C9,[6],not shown to inhibit
same,Inhibition of CYP2D6,[7],not shown to inhibit
same,Inhibition of CYP2C19,[8],not shown to inhibit
same,Absorption of the released carrier component,[9]; largely eliminated in the feces,poorly absorbed
O=C(O)CCNC(=O)c1ccc(/N=N/c2ccc(O)c(C(=O)O)c2)cc1 [balsalazide],Inhibition of CYP3A4/5,[2],not shown to inhibit
same,Change (reduction) of AUC0-∞ under fed conditions,[10],No significant changes
same,Reduction of mean Cmax under fed conditions,[10],44%
same,Tmax,[10]; fasted,0.5 h
same,Tmax,[10]; with a high fat meal,2 h
same,AUC(0-inf),"[11]; human, in vivo",1400 ng·h/mL
same,"T1/2, mean","[11]; human, in vivo",1.9 h
same,Tmax,"[11]; human, in vivo",0.5 h
same,AUC,"[11]; human, in vivo, AUCtau, mean",1300 ng·h/mL
same,Cmax,"[11]; human, in vivo, Cmax, mean",300 ng/mL
same,half-life,[11]; [27],114 min
same,Inhibition of CYP1A2,[5],not shown to inhibit
same,Inhibition of CYP2C9,[6],not shown to inhibit
same,Inhibition of CYP2D6,[7],not shown to inhibit
same,Binding to plasma proteins,[12],≥ 99%
same,Inhibition of CYP2C19,[8],not shown to inhibit
"Nc1ccc(O)c(C(=O)O)c1 [5-ASA, 5-aminosalicylic acid]",Change (reduction) of AUC0-∞ under fed conditions,[10],46%
same,Reduction of mean Cmax under fed conditions,[10],65%
same,Tmax,[13],12 h
same,AUC(0-inf),"[11]; human, in vivo",8500 ng·h/mL
same,"AUCtau, mean","[11]; human, in vivo",2.2 µg·h/mL
same,"Cmax, mean","[11]; human, in vivo",0.5 µg/mL
same,Tmax,"[11]; human, in vivo",12 h
same,half-life,"[11]; human, in vivo, T1/2, mean",570 min
same,half-life,[11]; [27],570 min
same,Binding to plasma proteins,[14],43%
same,Inhibition of CYP1A2,[5],not shown to inhibit
same,Inhibition of CYP2C9,[6],not shown to inhibit
same,Inhibition of CYP2D6,[7],not shown to inhibit
same,Inhibition of CYP2C19,[8],not shown to inhibit
same,Median Tmax,[15],24 h
"O=C(O)CCNC(=O)c1ccc(/N=N/c2ccc(O)c(C(=O)O)c2)cc1 [balsalazide disodium, (E)-5-[[-4-[[(2-carboxyethyl)amino]carbonyl]phenyl]azo]-2-hydroxybenzoic acid, disodium salt, dihydrate]","Genotoxicity, Ames test",[1],not genotoxic
same,Effect on fertility and reproductive performance,[16],no effect on fertility and reproductive performance
same,Impaired fertility or harm to the fetus,[16],no evidence of impaired fertility or harm to the fetus
same,Impaired fertility or harm to the fetus,[17],no evidence of impaired fertility or harm to the fetus
same,"Genotoxicity, human lymphocyte chromosomal aberration test",[3],not genotoxic
same,Tumorigenicity,[18],not tumorigenic
same,"Genotoxicity, mouse lymphoma cell (L5178Y/TK+/−) forward mutation test",[4],not genotoxic
same,"Genotoxicity, Chinese hamster lung cell (CH V79/HGPRT) forward mutation test",[19],genotoxic
same,"Genotoxicity, mouse micronucleus test",[20],not genotoxic
same,Solubility in acid,[21]; acid,insoluble
same,Solubility in all other organic solvents,[21]; all other organic solvents,practically insoluble
same,Solubility in methanol and ethanol,[21]; methanol and ethanol,sparingly soluble
same,pH at which soluble,[21]; pH,at least 4.5
same,Water solubility,[21]; water,highly water-soluble
same,Solubility in water and isotonic saline,[21]; water and isotonic saline,freely soluble
"CC(=O)Nc1ccc(O)c(C(=O)O)c1 [N-Ac-5-ASA, N-acetyl-5-aminosalyicylic acid]",Inhibition of CYP2D6,[22],not shown to inhibit
same,Median Tmax,[10]; fasted,12 h
same,Change (reduction) of AUC0-∞ under fed conditions,[10],17%
same,Reduction of mean Cmax under fed conditions,[10],48%
same,Median Tmax,[10]; with a high fat meal,24 h
same,Terminal half-life,[11],10.5 h
same,"T1/2, mean",[11]; repeated dose (Q12) 3.3 g as GIAZO,7.2 h
same,"AUCtau, mean",[11]; [28],21 µg·h/mL
same,"Cmax, mean",[11]; [28],2.2 µg/mL
same,"Tmax, median",[11]; [28],10 h
same,Accumulation ratio based on AUC,"[11]; repeated doses of 3.3 g GIAZO every 12 hours, steady-state vs single dose",3.6
same,Median time of peak plasma concentration (Tmax),"[11]; single dose 3.3 g GIAZO, 18 healthy subjects",12 h
same,"AUC0-∞, mean",[11]; [29],33.5 µg·h/mL
same,"AUCtau, mean",[11]; [29],5.9 µg·h/mL
same,"Cmax, mean",[11]; [29],1.2 µg/mL
same,"Tmax, median",[11]; [29],12 h
same,"T1/2, mean","[11]; single dose 3.3 g as GIAZO, N = 17 where marked b",10.4^b hour
same,Mean % of dose excreted in urine over 12 hours,"[11]; steady-state, 3.3 g GIAZO every 12 hours, healthy volunteers",15.6%
same,Inhibition of CYP2C19,[23],not shown to inhibit
same,Inhibition of CYP3A4/5,[24],not shown to inhibit
same,Inhibition of CYP2C9,[25],not shown to inhibit
same,Inhibition of CYP1A2,[26],not shown to inhibit
same,Binding to plasma proteins,[12],78%
same,Percent of the oral dose measured in the blood / systemically absorbed,[9]; oral dose,~12%
